Laboratory results taken from ChEMBL document CHEMBL3045706, “Synthesis of licochalcones and inhibition effects on radical-induced oxidation of DNA” (Med Chem Res, 2013).
Calls of active or inactive are those of the source. The rule behind the calls is not given here.

Assays:
Type in all cases: functional
[1] = Antioxidant activity assessed as hydroxyl radical-induced DNA oxidation at 0.2 mM after 30 min by TBARS assay (reference value: 100%)
[2] = Inhibition of Cu2+/GSH-induced DNA oxidation at 0.2 mM by TBARS assay
[3] = Inhibition of AAPH-induced DNA oxidation by TBARS assay

| Compound | Activity [1] [%] | inhibition [2] | inhibition [3] |
| --- | --- | --- | --- |
| C=C(C)C(C)c1cc(/C=C/C(=O)c2c(O)cc(O)cc2O)cc(OC)c1O (centres undefined) | 98.2 | Active | Active |
| C=C(C)C(C)c1cc(/C=C/C(=O)c2ccc(O)cc2O)cc(OC)c1O (centres undefined) | 106 | Active | Active |
| C=C(C)C(C)c1cc(/C=C/C(=O)c2ccc(O)cc2)cc(OC)c1O (centres undefined) | 91.3 | Active | Active |
